According to PubChem BioAssay (NCI):
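Each compound was tested at five concentrations against cells in 96-well plates for 48 hours. Definition used: TGI = concentration required for complete inhibition of growth.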

Legend:
Test in all cases: DTP human tumour cell line panel, 48 h
M14 melanoma = system: M14 melanoma
HS 578T breast = system: HS 578T breast
UACC-62 melanoma = system: UACC-62 melanoma
A549 NSCLC = system: A549 NSCLC
NCI-H460 lung = system: NCI-H460 lung
SR leukemia = system: SR leukemia
BT-549 breast = system: BT-549 breast
HCT-15 colon = system: HCT-15 colon
HCT-116 colon = system: HCT-116 colon
SF-295 CNS = system: SF-295 CNS
LOX IMVI melanoma = system: LOX IMVI melanoma
SN12C renal = system: SN12C renal
MOLT-4 leukemia = system: MOLT-4 leukemia
SNB-19 CNS = system: SNB-19 CNS
TK-10 renal = system: TK-10 renal
KM12 colon = system: KM12 colon
COLO 205 colon = system: COLO 205 colon
786-0 renal = system: 786-0 renal
MDA-N = system: MDA-N

| SMILES | TGI (M14 melanoma) | TGI (HS 578T breast) | TGI (UACC-62 melanoma) | TGI (A549 NSCLC) | TGI (NCI-H460 lung) | TGI (SR leukemia) | TGI (BT-549 breast) | TGI (HCT-15 colon) | TGI (HCT-116 colon) | TGI (SF-295 CNS) | TGI (LOX IMVI melanoma) | TGI (SN12C renal) | TGI (MOLT-4 leukemia) | TGI (SNB-19 CNS) | TGI (TK-10 renal) | TGI (KM12 colon) | TGI (COLO 205 colon) | TGI (786-0 renal) | TGI (MDA-N) |
| --- | --- | --- | --- | --- | --- | --- | --- | --- | --- | --- | --- | --- | --- | --- | --- | --- | --- | --- | --- |
| O=C(O)c1cc2c(cc1CC(Cc1ccc3c(c1)CCCC3)C(=O)O)CCCC2 (centres undefined) | > 100 µM | > 100 µM | > 100 µM | > 100 µM | > 100 µM | > 100 µM | > 100 µM | > 100 µM | > 100 µM | > 100 µM | > 100 µM | > 100 µM | > 100 µM | > 100 µM | > 100 µM | > 100 µM | > 100 µM | > 100 µM | > 100 µM |
| Clc1ccc(C(Cc2cccc(Cl)c2)c2c(Cl)nc(N3CCNCC3)nc2Cl)cc1 (centres undefined) | 26.2 µM | 38.8 µM | 36.7 µM | 29.5 µM | 30.9 µM | 17.5 µM | 39.1 µM | 26.4 µM | 25.9 µM | 31 µM | 25.5 µM |  | 24.6 µM | 30.5 µM | 30.4 µM | 26.8 µM | 11.9 µM | 27.5 µM | 29.6 µM |
| CCOC(=O)C1(N)CCc2[nH][nH]c(=O)c2C1 (centres undefined) | > 100 µM | > 100 µM | > 100 µM | > 100 µM | > 100 µM | > 100 µM | > 100 µM | > 100 µM | > 100 µM | > 100 µM | > 100 µM |  | > 100 µM | > 100 µM | > 100 µM | > 100 µM | > 100 µM | > 100 µM | > 100 µM |
| O[C@H]1[C@H](O)[C@@H](O)[C@@]2(O)CC[C@@H]1N2 | > 100 µM | > 100 µM | > 100 µM | > 100 µM | > 100 µM | > 100 µM | > 100 µM | > 100 µM | > 100 µM | > 100 µM | > 100 µM | > 100 µM | > 100 µM | > 100 µM | > 100 µM | > 100 µM | > 100 µM | > 100 µM | > 100 µM |
| Cc1ccc(C(=O)Cn2c(C(=O)/C=C/c3cccs3)nc3ccccc32)cc1 | > 100 µM | 72.6 µM | > 100 µM | > 100 µM | > 100 µM | 50.4 µM | > 100 µM | > 100 µM | > 100 µM |  | > 100 µM | > 100 µM |  | > 100 µM | > 100 µM | > 100 µM | > 100 µM | > 100 µM | > 100 µM |
| CC(Oc1ccccc1Cl)C(=O)NN1C(=O)CC(=O)NC1=S (centres undefined) | > 100 µM | > 100 µM | > 100 µM | > 100 µM | > 100 µM | > 100 µM | > 100 µM | > 100 µM | > 100 µM | > 100 µM | > 100 µM | > 100 µM | > 100 µM | > 100 µM | > 100 µM | > 100 µM | > 100 µM | > 100 µM | > 100 µM |
| C=C1CCCC(C)(C)C1CCC1(C)CCC(C(C)C(=O)OC)OO1 (centres undefined) | > 25 µM | 13.8 µM | > 15.5 µM | 4.15 µM | 3.77 µM | 9.78 µM | 9.97 µM | > 25 µM | > 25 µM | 10.2 µM | 0.902 µM | 8.4 µM | > 25 µM | > 18.1 µM | 7.72 µM | 2.84 µM | 13.3 µM | 0.76 µM | 7.39 µM |
| O=c1[nH]nc(Cc2ccccc2)n1CCCl | > 100 µM | > 100 µM | > 100 µM |  | > 100 µM | > 100 µM | > 100 µM | > 100 µM | > 100 µM | > 100 µM | > 100 µM | > 100 µM | > 100 µM | > 100 µM |  | > 100 µM | > 100 µM | > 100 µM | > 100 µM |
| NNC(=O)CCSc1ccccc1 | > 100 µM | > 100 µM | > 100 µM | > 100 µM | > 100 µM | > 100 µM | > 100 µM | > 100 µM | > 100 µM | > 100 µM | > 100 µM | > 100 µM | > 100 µM | > 100 µM | > 100 µM | > 100 µM | > 100 µM | > 100 µM | > 100 µM |
| COc1ccc(-c2cc(-c3ccc(O)cc3O)c(C#N)c(=O)[nH]2)cc1 | 35.4 µM | 48.1 µM | 36.2 µM | 62 µM | 59.7 µM | 53.4 µM | 55.9 µM | > 100 µM | 38.7 µM | 34 µM | 31.6 µM | 40.9 µM | 55.1 µM | 53.3 µM | > 100 µM | > 100 µM | 31.6 µM | 40.9 µM | 32.7 µM |
| CC(C)(C)OC(=O)NC(Cc1ccc(O)cn1)C(=O)O (centres undefined) |  | > 100 µM |  | > 100 µM | > 100 µM | > 100 µM | > 100 µM | > 100 µM | > 100 µM | > 100 µM | > 100 µM | > 100 µM | > 100 µM | > 100 µM | > 100 µM | > 100 µM | > 100 µM | > 100 µM | > 100 µM |
| Cc1ccc(N=NC(=Nc2ccc(Cl)cc2)c2ccc(N(CCC#N)CCC#N)cc2)cc1 | > 100 µM | > 100 µM | > 100 µM | > 100 µM | > 100 µM | > 100 µM | > 100 µM | > 100 µM | > 100 µM | > 100 µM |  | > 100 µM | > 100 µM | > 100 µM | 95.8 µM | > 100 µM | 55.6 µM | > 100 µM | > 100 µM |
